Data: PMC9268102, “Design, Synthesis and Biological Evaluation of 1,3,5-Triazine Derivatives Targeting hA1 and hA3 Adenosine Receptor” (Molecules, 2022)
“And” between values parts separate entries of the source, which are not always exact repeats. Equal entries are not always repeated. Where two headings read alike, the source gives them in different places.

What was measured:
hA1 AR [1] = target: T1, hA1 AR (Homo sapiens, UniProt P30542); settings: read-out: Ki at hA1AR; cited from earlier work
T1 construct: host or cells: CHO-A1 (CHO cells expressing hA1 AR)
T1 sequence (P30542 1-326): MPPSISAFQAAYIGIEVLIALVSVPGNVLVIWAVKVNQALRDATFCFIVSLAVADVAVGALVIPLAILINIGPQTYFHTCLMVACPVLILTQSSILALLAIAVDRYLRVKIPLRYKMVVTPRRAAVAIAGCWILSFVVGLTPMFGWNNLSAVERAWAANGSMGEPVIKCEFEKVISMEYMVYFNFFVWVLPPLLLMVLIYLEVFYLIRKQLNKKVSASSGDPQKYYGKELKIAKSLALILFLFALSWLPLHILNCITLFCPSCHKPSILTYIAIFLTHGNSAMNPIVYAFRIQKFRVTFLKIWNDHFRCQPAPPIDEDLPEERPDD

hA2A AR [2] = target: T2, hA2A AR (Homo sapiens, UniProt P29274); settings: cited from earlier work
T2 construct: expressed in transfected cells; host or cells: Hela-A2A cell line

hA1 AR [3] = target: T1, hA1 AR; assay: Radioligand competition binding assay at hA1 AR; settings: for inhibition at 10 µM / Percentage Inhibition (%) at 10 μM, hA1 AR: 10 μM compound; for inhibition at 10 µM / Ki / Percentage Inhibition (%) at 10 μM, hA1 AR: [3H]DPCPX, CHO cells; for inhibition at 10 µM: read-out: Percentage Inhibition (%) at 10 μM, hA1 AR
Description: (§1) All the synthesized compounds were screened with radioligand binding assays at hARs. First, the percentage of inhibition was measured by treatment of each hAR subtype with 10 μM of each compound (Table 1).
(§2) hA1, hA2A, and hA3 AR competition binding experiments were carried out in a multiscreen GF/C 96-well plate (Millipore, Madrid, Spain) pretreated with binding buffer (Hepes 20 mM, NaCl 100 mM, MgCl2 10 mM, 2 U/mL adenosine deaminase, pH = 7.4 for hA1 AR; Tris-HCl 50 mM, EDTA 1 mM, MgCl2 10 mM, 2 U/mL adenosine deaminase, pH = 7.4 for hA2A AR; and Tris-HCl 50 mM, EDTA 1 mM, MgCl2 5 mM, 2 U/mL adenosine deaminase, pH = 7.4 for hA3 AR, respectively). In each well was incubated 5 µg of membranes from Euroscreen CHO-A1 cell line, 5µg of membranes from Hela-A2A cell line, or 30µg of membranes from Hela-A3 cell line and prepared in laboratory: 1 nM [^3H]-DPCPX (140 Ci/mmol, 1 mCi/Ml, Perkin Elmer NET974001MC) for hA1 AR; 1 nM [^3H]-ZM241385 (50 Ci/mmol, 1 mCi/mL, ARC-ITISA 0884) for hA2A AR; and 10 nM [^3H]-NECA (29.6 Ci/mmol, 1 mCi/mL, Perkin Elmer NET811250UC) for hA3 AR, respectively; and the compounds studied according to standard protocol. Non-specific binding was determined in the presence of R-PIA 10 µM (Sigma P4532) for hA1 AR; of NECA 50 µM (Sigma E2387) for hA2A AR; and of R-PIA 100 µM (Sigma P4532) for hA3 AR, respectively. The reaction mixture (Vt: 200 µL/well) was incubated at 25 °C for 60 min (hA1 AR), 30min (hA2A AR), or 180min (hA3 AR); whereafter it was filtered and washed four times (hA1 and hA2A AR) or six times (hA3 AR) with 250 μL wash buffer (Hepes 20 mM, NaCl 100 mM, MgCl2 10 mM pH = 7.4, for hA1 AR; Tris-HCl 50 mM, EDTA 1 mM, MgCl2 10 mM, pH = 7.4, for hA2A AR; and Tris-HCl 50mM pH = 7.4, for hA3 AR, respectively) before being measured in a microplate beta scintillation counter (MicrobetaTrilux, PerkinElmer, Madrid, Spain).

hA2A AR [4] = target: T2, hA2A AR; assay: Radioligand competition binding assay at hA2A AR; settings: 10 μM compound, [3H]ZM241385, Hela cells; for inhibition at 10 µM: read-out: Percentage Inhibition (%) at 10 μM, hA2A AR
Description: as §1, §2

hA2B AR = target: T3, hA2B AR (Homo sapiens, UniProt P29275); assay: Radioligand competition binding assay at hA2B AR; settings: 10 μM compound; [3H]DPCPX; HEK-293 cells; read-out: Percentage Inhibition (%) at 10 μM, hA2B AR
T3 construct: host or cells: HEK-A2B (HEK-293T-A2B) cell line
T3 sequence (P29275 1-332): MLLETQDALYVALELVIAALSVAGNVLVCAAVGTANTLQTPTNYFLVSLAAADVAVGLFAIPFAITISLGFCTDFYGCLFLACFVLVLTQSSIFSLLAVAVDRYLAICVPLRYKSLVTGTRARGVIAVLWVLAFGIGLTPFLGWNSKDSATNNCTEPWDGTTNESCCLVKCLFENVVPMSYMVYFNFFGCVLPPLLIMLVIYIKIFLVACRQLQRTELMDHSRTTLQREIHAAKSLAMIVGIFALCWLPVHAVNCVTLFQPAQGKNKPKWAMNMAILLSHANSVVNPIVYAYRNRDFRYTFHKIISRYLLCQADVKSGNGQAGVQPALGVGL
Description: as §1
hA2B AR competition binding experiments were carried out in a multiscreen GF/C 96-well plate. In each well was incubated 25 µg of membranes from Euroscreen HEK-A2B cell line and prepared in laboratory, 25 nM [^3H]-DPCPX (140 Ci/mmol, 1 mCi/mL, Perkin Elmer NET974001MC) and compounds studied according to standard protocol. Non-specific binding was determined in the presence of NECA 1000 µM (Sigma E2397). The reaction mixture (Vt: 250 µL/well) was incubated at 25°C for 30 min, 200 µL was transferred to GF/C 96-well plate (Millipore, Madrid, Spain), and pretreated with binding buffer (Tris-HCl 50 Mm, EDTA 1 mM, MgCl2 5 mM, Bacitracin […], adenosine deaminase 2 U/Ml, pH = 6.5). It was then filtered and washed four times with 250 μL wash buffer (Tris-HCl 50 mM, EDTA 1 mM, MgCl2 5 mM, pH = 6.5), before being measured in a microplate beta scintillation counter (MicrobetaTrilux, PerkinElmer, Madrid, Spain).

hA3 AR = target: T4, hA3 AR (Homo sapiens, UniProt P0DMS8); assay: Radioligand competition binding assay at hA3 AR; design: expressed in transfected cells; host or cells: Hela-A3 cell line; settings: [3H]NECA; for Percentage Inhibition (%) at 10 μM, hA3 AR / inhibition at 10 µM: 10 μM compound; for inhibition at 10 µM: read-out: Percentage Inhibition (%) at 10 μM, hA3 AR
T4 sequence (P0DMS8 1-318): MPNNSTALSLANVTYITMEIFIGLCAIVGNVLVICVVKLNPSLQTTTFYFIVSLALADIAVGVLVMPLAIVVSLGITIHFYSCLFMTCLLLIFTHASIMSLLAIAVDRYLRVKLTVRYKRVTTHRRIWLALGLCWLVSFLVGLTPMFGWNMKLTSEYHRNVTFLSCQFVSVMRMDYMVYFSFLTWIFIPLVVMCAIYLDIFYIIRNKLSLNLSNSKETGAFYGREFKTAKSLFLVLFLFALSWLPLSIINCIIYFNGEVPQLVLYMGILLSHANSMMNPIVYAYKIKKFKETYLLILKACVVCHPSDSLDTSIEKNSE
Description: as §1, §2

T2 sequence (P29274 whole entry): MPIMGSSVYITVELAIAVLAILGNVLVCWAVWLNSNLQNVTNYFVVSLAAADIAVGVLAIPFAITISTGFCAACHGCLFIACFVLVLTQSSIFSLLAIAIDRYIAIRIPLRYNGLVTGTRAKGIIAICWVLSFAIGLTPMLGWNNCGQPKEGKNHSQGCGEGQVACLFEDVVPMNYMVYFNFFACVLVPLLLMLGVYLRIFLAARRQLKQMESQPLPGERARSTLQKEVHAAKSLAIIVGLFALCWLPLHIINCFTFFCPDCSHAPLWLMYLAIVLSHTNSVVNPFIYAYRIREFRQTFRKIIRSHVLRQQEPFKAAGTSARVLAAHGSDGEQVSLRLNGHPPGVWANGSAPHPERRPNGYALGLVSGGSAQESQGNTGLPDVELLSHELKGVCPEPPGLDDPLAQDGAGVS

SMILES | inhibition at 10 µM (hA1 AR [3]) [%] | inhibition at 10 µM (hA2A AR [4]) [%] | inhibition at 10 µM (hA2B AR) [%] | inhibition at 10 µM (hA3 AR) [%] | further results
Cc1ccsc1/C=C/c1nc(N)nc(-c2ccccc2O)n1 [Compound 3] |  |  |  |  | Ki (hA1 AR [1]): 0.0329 µM; Selectivity hA1/hA2AAR (hA2A AR [2]): 9.5
COc1cc(Cl)ccc1Nc1nc(N)nc(-c2oc3ccccc3c2C)n1 [Compound 4] |  |  |  |  | Ki (hA1 AR [1]): 1.44 µM; Selectivity hA1/hA2AAR (hA2A AR [2]): 2.94; Ki (hA2A AR [2]; read-out: Ki at hA2AAR): 0.49 µM
COc1ccc(Nc2nc(N)nc(-c3ccc(O)cc3)n2)cc1F [Compound 9a, 4-{4-amino-6-[(3-fluoro-4-methoxyphenyl)amino]-1,3,5-triazin-2-yl}phenol] | 99 ± 1 | 58 ± 1 | 72 ± 2 | > 95 | Ki (hA1 AR [3]): 0.139 µM; Selectivity (hA1 AR:hA3 AR) (hA1 AR [3]; ratio of Ki hA1 AR to Ki hA3 AR): 2.5 and 2.51; Percentage Inhibition (%) at 10 μM, hA2A AR (hA2A AR [4]; 10 µM): 56 ± 3%; Percentage Inhibition (%) at 10 μM, hA3 AR (hA3 AR): 97 ± 1%; Ki (hA3 AR): 0.0555 µM
COc1cc(Nc2nc(N)nc(-c3ccc(O)cc3)n2)cc(OC)c1 [Compound 9b, 4-{4-amino-6-[(3,5-dimethoxyphenyl)amino]-1,3,5-triazin-2-yl}phenol] | 99 ± 1 | 84 ± 4 | 62 ± 2 | 93 ± 1 | Ki (hA1 AR [3]): 0.0697 µM
Nc1nc(Nc2cccc(C(F)(F)F)c2)nc(-c2ccc(O)cc2)n1 [Compound 9d, 4-(4-amino-6-{[3-(trifluoromethyl)phenyl]amino}-1,3,5-triazin-2-yl)phenol] | 69 ± 2 | 40 ± 5 | 74 ± 1 | > 95 | Percentage Inhibition (%) at 10 μM, hA3 AR (hA3 AR): 95 ± 1%; Ki (hA3 AR): 1.26 µM
Cc1cc(C)cc(Nc2nc(N)nc(-c3ccc(O)cc3)n2)c1 [Compound 9e, 4-{4-amino-6-[(3,5-dimethylphenyl)amino]-1,3,5-triazin-2-yl}phenol] | > 95 | 58 ± 3 | 42 ± 2 | 92 ± 1 | Percentage Inhibition (%) at 10 μM, hA1 AR (hA1 AR [3]; 10 µM): 96 ± 3%; Ki (hA1 AR [3]): 0.872 µM
Nc1nc(Nc2ccc(N3CCCCC3)cc2)nc(-c2ccc(O)cc2)n1 [Compound 9f, 4-(4-amino-6-{[4-(piperidin-1-yl)phenyl]amino}-1,3,5-triazin-2-yl)phenol] | 28 ± 1 | 28 ± 3 | 44 ± 4 | 38 ± 1 | 
Cc1ccc(Nc2nc(N)nc(-c3ccc(O)cc3)n2)c(C)c1 [Compound 9g, 4-{4-amino-6-[(2,4-dimethylphenyl)amino]-1,3,5-triazin-2-yl}phenol] | > 95 | 80 ± 4 | 47 ± 2 | 91 ± 1 | Percentage Inhibition (%) at 10 μM, hA1 AR (hA1 AR [3]; 10 µM): 99 ± 1%; Ki (hA1 AR [3]): 0.116 µM
COc1ccc(Nc2nc(N)nc(-c3ccc(OC(F)(F)F)cc3)n2)cc1F [Compound 11c, N^2-(3-fluoro-4-methoxyphenyl)-6-[4-(trifluoromethoxy)phenyl]-1,3,5-triazine-2,4-diamine] | 48 ± 4 | 81 ± 1 | 27 ± 6 | 60 ± 1 | 
COc1ccc(Nc2nc(N)nc(-c3ccc(C(F)(F)F)cc3)n2)cc1F [Compound 11d, N^2-(3-fluoro-4-methoxyphenyl)-6-[4-(trifluoromethyl)phenyl]-1,3,5-triazine-2,4-diamine] | 74 ± 1 | 30 ± 1 | 93 ± 3 | 79 ± 1 | 
COc1ccc(Nc2nc(N)nc(-c3ccc(C#N)cc3)n2)cc1F [Compound 11e, 4-{4-amino-6-[(3-fluoro-4-methoxyphenyl)amino]-1,3,5-triazin-2-yl}benzonitrile] | 45 ± 5 | 50 ± 2 | 52 ± 1 | 72 ± 3 | 
COC(=O)c1ccc(-c2nc(N)nc(Nc3ccc(OC)c(F)c3)n2)cc1 [Compound 11f, methyl-4-{4-amino-6-[(3-fluoro-4-methoxyphenyl)amino]-1,3,5-triazin-2-yl}benzoate] | 52 ± 1 | 35 ± 6 | 55 ± 2 | 85 ± 1 | 
CCOC(=O)c1ccc(-c2nc(N)nc(Nc3ccc(OC)c(F)c3)n2)cc1 [Compound 11g, ethyl-4-{4-amino-6-[(3-fluoro-4-methoxyphenyl)amino]-1,3,5-triazin-2-yl}benzoate] | 56 ± 1 | 48 ± 6 | 35 ± 2 | 78 ± 3 | 
COc1ccc(Nc2nc(N)nc(-c3cc(F)c(O)c(F)c3)n2)cc1F [Compound 11h, 4-{4-amino-6-[(3-fluoro-4-methoxyphenyl)amino]-1,3,5-triazin-2-yl}-2,6-difluorophenol] | 88 ± 1 | 26 ± 5 | 66 ± 6 | 79 ± 1 | Percentage Inhibition (%) at 10 μM, hA1 AR (hA1 AR [3]): inactive
COc1ccc(Nc2nc(N)nc(-c3ccc(F)c([N+](=O)[O-])c3)n2)cc1F [Compound 11i, 6-(4-fluoro-3-nitrophenyl)-N^2-(3-fluoro-4-methoxyphenyl)-1,3,5-triazine-2,4-diamine] | 53 ± 1 | 57 ± 2 | 72 ± 6 | 83 ± 1 | Percentage Inhibition (%) at 10 μM, hA1 AR (hA1 AR [3]): inactive
